In general, IC50 refers to the concentration that inhibits the measured activity by half.

Molecules are shown by their SMILES.

One experiment relates to HCC461. Description: cell viability assay in HCC461, compound alone. In kind it is cell-based. The note with it: HCC461, HCC461; Tables 15-18; read-out: IC50 (uM) in cell viability assay in HCC461.
Take `CN[C@@H](CO)C(=O)N[C@@H](CC#CC#CC[C@H](NC(=O)[C@H](CO)NC)C(=O)N1CCC[C@H]1C(=O)NC1c2ccccc2-c2ccccc21)C(=O)N1CCC[C@H]1C(=O)NC1c2ccccc2-c2ccccc21` [Compound P2-17]: the IC50 was 0.134 µM.
On the same count and under the same terms, as for `C[C@@H](C(=O)N[C@@H](CC#CC#CC[C@H](NC(=O)[C@H](C)N(C)C(=O)C(F)(F)F)C(=O)N1CCC[C@H]1C(=O)N[C@@H]1CCCc2ccccc21)C(=O)N1CCC[C@H]1C(=O)N[C@@H]1CCCc2ccccc21)N(C)C(=O)C(F)(F)F` [Compound P2-18], the figure is 0.031 µM.
Same read-out and setting: under `CN[C@@H](C)C(=O)N[C@@H](COCC#CC#CCOC[C@H](NC(=O)[C@H](C)NC)C(=O)N1CCCC1C(=O)N[C@@H]1CCCc2ccccc21)C(=O)N1CCCC1C(=O)N[C@@H]1CCCc2ccccc21` (some centres unmarked) [Compound P2-19] stands 0.025 µM.
The same measure, in the same setting: as for `CN[C@@H](C)C(=O)N[C@@H](COCCCCCCOC[C@H](NC(=O)[C@H](C)NC)C(=O)N1CCCC1C(=O)N[C@@H]1CCCc2ccccc21)C(=O)N1CCCC1C(=O)N[C@@H]1CCCc2ccccc21` (some centres unmarked) [Compound P2-20], the figure is 0.043 µM.
For the molecule `CN[C@@H](C)C(=O)N[C@H](C(=O)N1CCC[C@H]1Cn1nnnc1SC(C)(C)C)[C@@H](C)OCC#CC#CCO[C@H](C)[C@H](NC(=O)[C@H](C)NC)C(=O)N1CCC[C@H]1Cn1nnnc1SC(C)(C)C` [Compound P2-21], the 50% inhibitory concentration (IC50) was determined as 0.24 µM.
On to `CN[C@@H](C)C(=O)N[C@H](C(=O)N1CCC[C@H]1Cn1nnnc1S(=O)(=O)c1ccc(C)cc1)[C@@H](C)OCC#CC#CCO[C@H](C)[C@H](NC(=O)[C@H](C)NC)C(=O)N1CCC[C@H]1Cn1nnnc1S(=O)(=O)c1ccc(C)cc1` [Compound P2-22], for which the IC50 is 0.18 µM.
On the same count and under the same terms, under `CN[C@@H](C)C(=O)N[C@@H](CCCCCC[C@H](NC(=O)[C@H](C)NC)C(=O)N1CCC[C@H]1C(=O)NC1CCCC2CCCCC21)C(=O)N1CCC[C@H]1C(=O)NC1CCCC2CCCCC21` (some centres unmarked) [Compound P2-23] stands 0.055 µM.
On to `CN[C@@H](C)C(=O)N[C@@H](CCCCNC(=O)c1cc(N)cc(C(=O)NCCCC[C@H](NC(=O)[C@H](C)NC)C(=O)N2CCC[C@H]2C(=O)N[C@@H]2CCCc3ccccc32)c1)C(=O)N1CCC[C@H]1C(=O)N[C@@H]1CCCc2ccccc21` [Compound P2-24], for which the IC50 amounted to 0.121 µM.
Regarding `CN[C@@H](C)C(=O)N[C@@H](CCCCNC(=O)c1cc(O)cc(C(=O)NCCCC[C@H](NC(=O)[C@H](C)NC)C(=O)N2CCC[C@H]2C(=O)N[C@@H]2CCCc3ccccc32)c1)C(=O)N1CCC[C@H]1C(=O)N[C@@H]1CCCc2ccccc21` [Compound P2-25], the IC50 is 0.086 µM.
On the same count and under the same terms, under `CN[C@@H](C)C(=O)N[C@@H](CCNC(=O)c1cccc(C(=O)NCC[C@H](NC(=O)[C@H](C)NC)C(=O)N2CCC[C@H]2C(=O)N[C@@H]2CCCc3ccccc32)c1)C(=O)N1CCC[C@H]1C(=O)N[C@@H]1CCCc2ccccc21` [Compound P2-26] stands 0.08 µM.
Take `CN[C@@H](C)C(=O)N[C@@H](CCNC(=O)c1cc(N)cc(C(=O)NCC[C@H](NC(=O)[C@H](C)NC)C(=O)N2CCC[C@H]2C(=O)N[C@@H]2CCCc3ccccc32)c1)C(=O)N1CCC[C@H]1C(=O)N[C@@H]1CCCc2ccccc21` [Compound P2-27]: the IC50 amounted to 0.165 µM.
Still for that read-out and setting: as for `CN[C@@H](C)C(=O)N[C@@H](CCNC(=O)c1cc(C(=O)NCC[C@H](NC(=O)[C@H](C)NC)C(=O)N2CCC[C@H]2C(=O)N[C@@H]2CCCc3ccccc32)[nH]n1)C(=O)N1CCC[C@H]1C(=O)N[C@@H]1CCCc2ccccc21` [Compound P2-28], the figure is 0.163 µM; as for `CN[C@@H](C)C(=O)N[C@@H](CCCCNC(=O)c1cccc(C(=O)NCCCC[C@H](NC(=O)[C@H](C)NC)C(=O)N2CCC[C@H]2C(=O)NC(c2ccccc2)c2ccccc2)c1)C(=O)N1CCC[C@H]1C(=O)NC(c1ccccc1)c1ccccc1` [Compound P2-29], 0.324 µM.
On the same count and under the same terms, as for `CN[C@@H](C)C(=O)N[C@@H](CCCCNC(=O)c1ccc(C(=O)NCCCC[C@H](NC(=O)[C@H](C)NC)C(=O)N2CCC[C@H]2C(=O)NC(c2ccccc2)c2ccccc2)cc1)C(=O)N1CCC[C@H]1C(=O)NC(c1ccccc1)c1ccccc1` [Compound P2-30], the figure is 0.189 µM; as for `CN[C@@H](C)C(=O)N[C@@H](CCCCNC(=O)c1cc(C(=O)NCCCC[C@H](NC(=O)[C@H](C)NC)C(=O)N2CCC[C@H]2C(=O)NC(c2ccccc2)c2ccccc2)[nH]n1)C(=O)N1CCC[C@H]1C(=O)NC(c1ccccc1)c1ccccc1` [Compound P2-31], 0.268 µM; as for `CN[C@@H](C)C(=O)N[C@@H](CCCCNc1nc(NCCCC[C@H](NC(=O)[C@H](C)NC)C(=O)N2CCC[C@H]2C(=O)N[C@@H]2CCCc3ccccc32)nc(OC)n1)C(=O)N1CCC[C@H]1C(=O)N[C@@H]1CCCc2ccccc21` [Compound P2-32], 0.038 µM.
The same measure, in the same setting: under `CN[C@@H](C)C(=O)N[C@@H](CC#CC#CC[C@H](NC(=O)[C@H](C)NC)C(=O)N1CSC[C@H]1C(=O)N[C@@H]1CCCc2ccccc21)C(=O)N1CSC[C@H]1C(=O)N[C@@H]1CCCc2ccccc21` [Compound P2-33] stands 0.188 µM.

Still in this experiment, the particulars now being: HCC461, HCC461 cells, compound alone; read-out: IC50 (uM) in cell viability assay in HCC461.
On to `CN[C@@H](C)C(=O)N[C@H](C(=O)N1C[C@@H](NC(=O)CCC(=O)N[C@H]2C[C@@H](C(=O)NC3CCCc4ccccc43)N(C(=O)[C@@H](NC(=O)[C@H](C)NC)C(C)(C)C)C2)C[C@H]1C(=O)NC1CCCc2ccccc21)C(C)(C)C` (some centres unmarked) [Compound P3-1], for which the IC50 was 0.022 µM.
Still for that read-out and setting: under `CN[C@@H](C)C(=O)N[C@H](C(=O)N1C[C@@H](NC(=O)c2ccc(C(=O)N[C@H]3C[C@@H](C(=O)NC4c5ccccc5-c5ccccc54)N(C(=O)[C@@H](NC(=O)[C@H](C)NC)C(C)(C)C)C3)cc2)C[C@H]1C(=O)NC1c2ccccc2-c2ccccc21)C(C)(C)C` [Compound P3-2] stands 0.02 µM; under `CN[C@@H](C)C(=O)N[C@H](C(=O)N1C[C@@H](NC(=O)CCCC(=O)N[C@H]2C[C@@H](C(=O)NC3c4ccccc4-c4ccccc43)N(C(=O)[C@@H](NC(=O)[C@H](C)NC)C(C)(C)C)C2)C[C@H]1C(=O)NC1c2ccccc2-c2ccccc21)C(C)(C)C` [Compound P3-3], 0.07 µM; under `C#CC[C@H](NC(=O)[C@H](C)NC)C(=O)N1C[C@@H](NC(=O)c2ccc(C(=O)N[C@H]3C[C@@H](C(=O)N[C@@H]4CCCc5ccccc54)N(C(=O)[C@H](CC#C)NC(=O)[C@H](C)NC)C3)cc2)C[C@H]1C(=O)N[C@@H]1CCCc2ccccc21` [Compound P3-4], 0.006 µM.
On the same count and under the same terms, under `CN[C@@H](C)C(=O)N[C@H](C(=O)N1C[C@@H](n2cc(CNC(=O)NCc3cn([C@H]4C[C@@H](C(=O)N[C@@H]5CCCc6ccccc65)N(C(=O)[C@@H](NC(=O)[C@H](C)NC)C(C)(C)C)C4)nn3)nn2)C[C@H]1C(=O)N[C@@H]1CCCc2ccccc21)C(C)(C)C` [Compound P3-5] stands 0.061 µM; under `CN[C@@H](C)C(=O)N[C@H](C(=O)N1C[C@@H](N2CC(CCCC3CN([C@H]4C[C@@H](C(=O)NC5c6ccccc6-c6ccccc65)N(C(=O)[C@@H](NC(=O)[C@H](C)NC)C(C)(C)C)C4)N=N3)N=N2)C[C@H]1C(=O)NC1c2ccccc2-c2ccccc21)C(C)(C)C` (some centres unmarked) [Compound P3-6], 0.007 µM; under `CN[C@@H](C)C(=O)N[C@H](C(=O)N1C[C@@H](n2cc(CNC(=O)c3cccc(C(=O)NCc4cn([C@H]5C[C@@H](C(=O)N[C@@H]6CCCc7ccccc76)N(C(=O)[C@@H](NC(=O)[C@H](C)NC)C(C)(C)C)C5)nn4)c3)nn2)C[C@H]1C(=O)N[C@@H]1CCCc2ccccc21)C(C)(C)C` [Compound P3-7], 0.007 µM.
Still for that read-out and setting: under `CN[C@@H](C)C(=O)N[C@H]1CC#CC#CC[C@H](NC(=O)[C@H](C)NC)C(C)N2C[C@H](C[C@H]2C(=O)N[C@@H]2CCCc3ccccc32)NC(=O)c2ccc(cc2)C(=O)N[C@H]2C[C@@H](C(=O)N[C@@H]3CCCc4ccccc43)N(C2)C1C` (some centres unmarked) [Compound P3-8] stands 0.081 µM; under `C#CC[C@H](NC(=O)[C@H](C)NC)C(=O)N1C[C@@H](NC(=O)N[C@H]2C[C@@H](C(=O)N[C@@H]3CCCc4ccccc43)N(C(=O)[C@H](CC#C)NC(=O)[C@H](C)NC)C2)CC1C(=O)N[C@@H]1CCCc2ccccc21` (some centres unmarked) [Compound P3-9], 0.086 µM; under `CN[C@@H](C)C(=O)N[C@H](C(=O)N1C[C@@H](NC(=O)c2cccc(C(=O)N[C@H]3C[C@@H](C(=O)N[C@@H]4CCCc5ccccc54)N(C(=O)[C@@H](NC(=O)[C@H](C)NC)C(C)(C)C)C3)n2)C[C@H]1C(=O)N[C@@H]1CCCc2ccccc21)C(C)(C)C` [Compound P3-10], 0.046 µM.
In the case of `CN[C@@H](C)C(=O)N[C@H](C(=O)N1C[C@@H](NC(=O)c2cncc(C(=O)N[C@H]3C[C@@H](C(=O)N[C@@H]4CCCc5ccccc54)N(C(=O)[C@@H](NC(=O)[C@H](C)NC)C(C)(C)C)C3)c2)C[C@H]1C(=O)N[C@@H]1CCCc2ccccc21)C(C)(C)C` [Compound P3-11], the IC50 amounted to 0.003 µM.
On the same count and under the same terms, as for `C#CC[C@H](NC(=O)[C@H](C)NC)C(=O)N1C[C@@H](NC(=O)c2cccc(C(=O)N[C@H]3C[C@@H](C(=O)N[C@@H]4CCCc5ccccc54)N(C(=O)[C@H](CC#C)NC(=O)[C@H](C)NC)C3)c2)C[C@H]1C(=O)N[C@@H]1CCCc2ccccc21` [Compound P3-12], the figure is 0.047 µM.
Take `CN[C@@H](C)C(=O)N[C@H](C(=O)N1C[C@@H](NC(=O)c2cnc(C(=O)N[C@H]3C[C@@H](C(=O)N[C@@H]4CCCc5ccccc54)N(C(=O)[C@@H](NC(=O)[C@H](C)NC)C(C)(C)C)C3)cn2)C[C@H]1C(=O)N[C@@H]1CCCc2ccccc21)C(C)(C)C` [Compound P3-13]: the concentration for half-maximal inhibition (IC50) stood at 0.028 µM.
The same measure, in the same setting: as for `C#CC[C@H](NC(=O)[C@H](C)NC)C(=O)N1C[C@@H](NC(=O)c2cnc(C(=O)N[C@H]3C[C@@H](C(=O)N[C@@H]4CCCc5ccccc54)N(C(=O)[C@H](CC#C)NC(=O)[C@H](C)NC)C3)cn2)C[C@H]1C(=O)N[C@@H]1CCCc2ccccc21` [Compound P3-14], the figure is 0.023 µM; as for `CN[C@@H](C)C(=O)N[C@H](C(=O)N1C[C@@H](NC(=O)[C@H](O)[C@@H](O)C(=O)N[C@H]2C[C@@H](C(=O)NC3c4ccccc4-c4ccccc43)N(C(=O)[C@@H](NC(=O)[C@H](C)NC)C(C)(C)C)C2)C[C@H]1C(=O)NC1c2ccccc2-c2ccccc21)C(C)(C)C` [Compound P3-15], 0.017 µM.

For the origin of these results see patent US20130344026A1, “Dimeric Smac Mimetics” (priority 2009, published 2013).
